According to patent publication US20070224194A1, “Methods for Inhibiting Angiogenesis and/or Lymphangiogenesis” (LUDWIG INSTITUTE FOR CANCER RESEARCH, priority 2004, published 2007):
The star is where a group is joined. Decanoyl = CCCCCCCCCC(=O)*; CH2Cl = ClC*

What was measured:
[1] = system: proteolytic processing of VEGF-DΔC; experiment: Processing of VEGF-DΔC by 293EBNA cells (cleavage of N-terminal propeptide from VHD); format: cell-based, human; settings: for band representing mature VHD from VEGF-DΔC: 1, 10, 50, 100 μM, 18 hours
Description: An expression plasmid encoding a truncated derivative of human VEGF-D consisting of the N-terminal propeptide and the VHD tagged at the carboxyl terminus with the FLAG epitope (referred to as VEGF-DΔC) (FIG. 3, top panel) has been previously described (Stacker et al, J. Biol. Chem. 274 32127-32136, 1999). The VEGF-DΔC protein construct facilitates study of cleavage of the N-terminal propeptide from the VHD. The conditioned media of 293EBNA cells stably transfected with the VEGF-DΔC expression plasmid contain a mixture of VEGF-D proteins, including unprocessed VEGF-DΔC, and the proteolytically processed VHD. A second cell line was generated by stable transfection of 293EBNA cells with an expression construct encoding VEGF-DΔN, a truncated derivative of human VEGF-D consisting of the VHD tagged at the amino terminus with the FLAG epitope and C-terminal propeptide (FIG. 3, top panel). This protein construct facilitates study of cleavage of the C-terminal propeptide from the VHD. The conditioned media of 293EBNA cells expressing VEGF-DΔN contain a mixture of VEGF-D proteins, consisting of unprocessed VEGF-DΔN, and the proteolytically processed VHD. The VEGF-DΔN expression plasmid was constructed by replacing the 2-kb EcoRV fragment of the pAPEX-3 construct for full-length VEGF-D with the 2-kb EcoRV fragment of the pAPEX-3 construct for VEGF-DΔNΔC-FLAG (Stacker et al, J. Biol. Chem. 274 32127-32136, 1999).
The 293EBNA cell lines expressing VEGF-D-FULL-FLAG, VEGF-DΔC or VEGF-DΔN were seeded into 24-well plates (8×10^4 cells/well), in medium supplemented with Dec-RVKR-CMK dissolved in methanol, to a final concentration of 0, 1, 10, 50 or 100 μM. After 18 hours incubation (37° C., 10% CO2 in an humidified incubator), conditioned cell culture media were removed and clarified by centrifugation (5 minutes, 250×g, 4° C.). VEGF-D species were immunoprecipitated from conditioned media of 293EBNA VEGF-DΔC cells by addition of M2-agarose beads (Sigma-Aldrich), that bind the FLAG epitope attached to the carboxyl-terminus of the VHD, and from conditioned media of 293EBNA VEGF-DΔN cells by addition of A2 antiserum, that binds to epitopes within the VHD (Stacker et al, J. Biol. Chem. 274 32127-32136, 1999), followed by incubation with protein-A sepharose beads. Beads and bound proteins were recovered by centrifugation (5 minutes, 250×g, 4° C.) and washed twice with Tris-buffered saline (TBS; 50 mM Tris-Cl, 150 mM NaCl, pH 8.0). The precipitated VEGF-D species were then analysed by reducing SDS-PAGE and Western blotting using a biotinylated antibody against the VHD of human VEGF-D (R&D Systems), and Streptavidin-horse radish peroxidase conjugate (Zymed).

[2] = system: BaF3 cells expressing the VEGFR-2/EpoR chimeric receptor; experiment: BaF3 bioassay, VEGFR-2/EpoR chimeric receptor, [3H]thymidine incorporation; format: cell-based; settings: paper example in present tense
Description: In order to test if a furin or broad-range PC inhibitor can block the biological effects of VEGF-D, mammalian cells are employed that proteolytically process VEGF-D, such as 293EBNA or Capan-1 pancreatic carcinoma cells. Derivatives of these cells harboring an expression construct for full-length VEGF-D are transfected with the shRNA construct for furin (as described here) or treated with a broad-range PC inhibitor such as decanoyl-Arg-Val-Lys-Arg-chloromethylketone (see, PCT WO 2005/112971 A1, the disclosure of which is incorporated herein by reference in its entirety). The inhibition of VEGF-D processing by these agents is confirmed by immunoprecipitation/Western blotting of the conditioned cell culture media using antibody that binds the VHD of VEGF-D. The conditioned cell culture media from cells treated with the inhibitors (and from cells in which these agents are omitted, i.e. “mock” treatments) are used for incubations with BaF3 pre-B cells expressing chimeric receptors consisting of the extracellular domains of VEGFR-2 or VEGFR-3 and the transmembrane and cytoplasmic domains of the erythropoietin receptor (EpoR) (Stacker et al., J. Biol. Chem., 274:34884-34892, 1999; Achen et al., Eur. J. Biochem., 267:2505-2515, 2000). […] The proliferation of the cells in response to the conditioned media containing VEGF-D is monitored by incorporation of [3H]thymidine into DNA. […]

**Q.** For “Decanoyl-Arg-Val-Lys-Arg-chloromethylketone (Decanoyl-RVKR-CH2Cl) [Dec-RVKR-CMK]”, which “proteolytic cleavage of the N-terminal propeptide from the VHD, at both Major and Minor cleavage sites” value [1] is on record?
**A.** Its value is “completely abrogated”.

**Q.** What about the “proteolytic processing of VEGF-DΔC” value ([1]; 100 μM) of the same substance?
**A.** The value was “completely blocked”.

**Q.** And the “band representing mature VHD from VEGF-DΔC” value [1]?
**A.** Its value is “reduced in abundance in a dose dependent manner”.

**Q.** What about the “band representing mature VHD from VEGF-DΔC” value ([1]; listed as dec-RVKR-CMK) of the same substance?
**A.** The value was “blocked each of these processing events in a dose-dependent fashion”.

**Q.** And the “proliferation of BaF3 VEGFR-2/EpoR cells induced by conditioned media of treated VEGF-D-expressing cells” value [2]?
**A.** Its value is “do not induce significant proliferation”.
